In ChEMBL document CHEMBL3886836, “Amides as pim inhibitors” (2016):

How the values were obtained:
[1] = biological target: T1, Serine/threonine-protein kinase pim-1 (Homo sapiens, UniProt P11309); experiment: The phosphorylation of biotinylated-BAD (S112) peptide by full length recombinant Pim-1, Pim-2, or Pim-3 protein was detected with streptavidin:Allophycocyanin (APC) conjugate and a europium (Eu) labeled antibody directed against phosphorylated-BAD (S112). […] The fluorescence is directly proportional to the amount of phosphorylated BAD peptide present in the reaction. […] The Reaction Buffer consisted of 45 mM Hepes, pH 7.0, 15 mM NaCl, and 1 mM MgCl. The quench/detection buffer consisted of 50 mM Tris, 100 mM NaCl, 0.05% BSA, 0.1% Tween and 3 mM EDTA. Biotinylated BAD peptide (Biopeptide), 10 mM ATP (Sigma), Labeled p-BAD (S112) mAb (Cell Signalling and Perkin Elmer) [with 0.05% BSA and 2 mM DTT added] streptavidin:Allophycocyanin [Perkin Elmer]. […] Initial incubations were carried out at RT (22° C.) for 30 min for both Pim-1 and for Pim-2. Pim enzyme is added to compound in buffer, and plates are incubated of 30 min. Biotinylated BAD and ATP are added and plates are incubated for 1 h. A mixture of labeled p-BAD (S112) mAb and quench/detection buffer are added and incubated for 2 h. Fluorescence was measured by an HTRF® Envision microplate reader.
[2] = biological target: T2, Serine/threonine-protein kinase pim-2 (Homo sapiens, UniProt Q9P1W9); experiment: Homogeneous Time Resolved Fluorescence Assay (HTRF): The assay for the determination of Pim activity is based on the formation of phosphorylated biotinylated-BAD peptide at the Serine 112 residue (S112) and employs HTRF® (homogeneous time resolved fluorescence) technology to detect the product in a 384-well plate format. The phosphorylation of biotinylated-BAD (S112) peptide by full length recombinant Pim-1, Pim-2, or Pim-3 protein was detected with streptavidin:Allophycocyanin (APC) conjugate and a europium (Eu) labeled antibody directed against phosphorylated-BAD (S112). Excitation of Eu by a high energy laser light (337 nm) leads to a transfer of energy to the APC molecule, and results in an emission at 665 nm. The fluorescence is directly proportional to the amount of phosphorylated BAD peptide present in the reaction. […] A reference compound was included on each assay plate [Costar 3658] in order to validate that plate; on one plate of every assay run, two additional reference compounds were included. The Reaction Buffer consisted of 45 mM Hepes, pH 7.0, 15 mM NaCl, and 1 mM MgCl. The quench/detection buffer consisted of 50 mM Tris, 100 mM NaCl, 0.05% BSA, 0.1% Tween and 3 mM EDTA. Biotinylated BAD peptide (Biopeptide), 10 mM ATP (Sigma), Labeled p-BAD (S112) mAb (Cell Signalling and Perkin Elmer) [with 0.05% BSA and 2 mM DTT added] streptavidin:Allophycocyanin [Perkin Elmer]. Final concentrations either Pim-1 enzyme [5 pM], or Pim-2 enzyme [0.5 pM], DMSO [1%], BLC BAD (S112) [0.5 μM], ATP [1.5 μM], streptavidin:Allophycocyanin [0.002 mg/mL] and biotinylated-BAD (S112) mAb [100 pM]. Initial incubations were carried out at RT (22° C.) for 30 min for both Pim-1 and for Pim-2. Pim enzyme is added to compound in buffer, and plates are incubated of 30 min. Biotinylated BAD and ATP are added and plates are incubated for 1 h. A mixture of labeled p-BAD (S112) mAb and quench/detection buffer are added and incubated for 2 h. Fluorescence was measured by an HTRF® Envision microplate reader.
[3] = biological target: T1, Serine/threonine-protein kinase pim-1; experiment: (§1) Homogeneous Time Resolved Fluorescence Assay (HTRF): The assay for the determination of Pim activity is based on the formation of phosphorylated biotinylated-BAD peptide at the Serine 112 residue (S112) and employs HTRF® (homogeneous time resolved fluorescence) technology to detect the product in a 96-well plate format. The phosphorylation of biotinylated-BAD (S112) peptide by full length recombinant Pim-1, Pim-2, or Pim-3 protein was detected with streptavidin:Allophycocyanin (APC) conjugate and a europium (Eu) labeled antibody directed against phosphorylated-BAD (S112). Excitation of Eu by a high energy laser light (337 nm) leads to a transfer of energy to the APC molecule, and results in an emission at 665 nm. The fluorescence is directly proportional to the amount of phosphorylated BAD peptide present in the reaction. […] A reference compound was included on each assay plate in order to validate that plate; on one plate of every assay run, two additional reference compounds were included. The final buffer conditions were as follows: 60 mM Hepes, pH 7.0, 0.05% BSA, 2 mM DTT. Incubations were carried out at RT (22° C.) for 2 h for Pim-1, 1 hour and 30 min for Pim-3, and 45 min for Pim-2. The reaction was stopped by the addition of 3 mM EDTA, and fluorescence was measured by an HTRF® Rubystar microplate reader.
[4] = biological target: T2, Serine/threonine-protein kinase pim-2; experiment: as §1

| IC50 [1] | IC50 [2] | IC50 [3] | IC50 [4] | SMILES |
| --- | --- | --- | --- | --- |
| 98.5 nM | 187 nM | – | – | Cc1nc2cccc(-c3cc4c([nH]3)CCNC4=O)c2nc1-c1cccnc1Cl |
| 2.32 nM | 2.16 nM | – | – | Cc1nc2cccc(-c3cc4c([nH]3)C(CO)NC4=O)c2nc1NC(C)(C)C (racemic) |
| 50.7 nM | – | – | – | Cc1nc2cccc(-c3cc4c([nH]3)CCNC4=O)c2nc1-c1cnccc1Cl |
| 6.2 nM | 22.7 nM | – | – | Cc1nc2cccc(-c3cc4c([nH]3)CCNC4=O)c2nc1NC(C)(C)C(N)=O |
| 0.3 nM | 0.8 nM | – | – | CC1(C)CCCN1c1cnc2cccc(-c3cc4c([nH]3)CCNC4=O)c2n1 |
| 10.3 nM | 33.4 nM | – | – | Cc1nc2cccc(-c3cc4c([nH]3)CCNC4=O)c2nc1-c1ccc(N)cc1Cl |
| – | – | 7 nM | 57.2 nM | O=C1NCCc2[nH]c(-c3cccc4ccc(N[C@H]5CC[C@H](O)CC5)nc34)cc21 |
| 2 nM | 1.8 nM | – | – | Nc1nc2cccc(-c3cc4c([nH]3)CCNC4=O)c2nc1Oc1ccccc1 |
| 6.04 nM | – | – | – | Cc1nc2cccc(-c3cc4c([nH]3)CCNC4=O)c2nc1-c1c(F)cccc1Cl |
| 0.434 nM | 1.11 nM | – | – | CC(C)(C)Nc1ccc2cccc(-c3cc4c([nH]3)CCNC4=O)c2n1 |
| – | 0.193 nM | – | – | Cn1c(NC(C)(C)C)nc2c(-c3cc4c([nH]3)CNC4=O)cccc2c1=O |
| 10.3 nM | 7.8 nM | – | – | Cc1nc2cccc(-c3cc4c(n3C)C(CO)NC4=O)c2nc1NC(C)(C)C (racemic) |
| 0.4 nM | 0.8 nM | – | – | CC1(C)CCN1c1cnc2cccc(-c3cc4c([nH]3)CCNC4=O)c2n1 |
| 1.2 nM | 1.8 nM | – | – | Cc1nc2cccc(-c3cc4c([nH]3)CCNC4=O)c2nc1NC(C)C(C)C (racemic) |

| SMILES | IC50 [1] | IC50 [2] | IC50 [3] | IC50 [4] |
| --- | --- | --- | --- | --- |
| Cc1nc2cccc(-c3cc4c([nH]3)CCN/C4=N/O)c2nc1NC(C)(C)C | 9 nM | 12 nM | – | – |
| Cc1nc2cccc(-c3cc4c([nH]3)CCNC4=O)c2nc1N[C@H]1C[C@@H](N2CCOCC2)C1 | 6 nM | – | – | – |
| Cc1nc2cccc(-c3cc4c([nH]3)CCNC4=O)c2nc1N[C@H]1C[C@@H](NCC(F)F)C1 | 2 nM | 2 nM | – | – |
| Cc1nc2cccc(-c3cc4c([nH]3)CCNC4=O)c2nc1N[C@H]1C[C@@H](N(C)C)C1 | 2 nM | 4 nM | – | – |
| Cc1nc2cccc(-c3cc4c([nH]3)CCNC4=O)c2nc1NC(C)(C)CCS(C)(=O)=O | 232 nM | 98.6 nM | – | – |
